Assay results reported in patent US6750239B2, “Pyrazole-derived kinase inhibitors and uses thereof” (Vertex Pharmaceuticals Incorporated, priority 2001, dated 2004).

Columns and labels:
activated ERK2 = activated ERK2 (Homo sapiens, UniProt P28482); experiment: ERK2 inhibition spectrophotometric coupled-enzyme assay; type: biochemical; settings: activated ERK2 10 nM, 65 μM ATP, 30° C., pH 7.5; read-out: ERK2 Inhibitory Activity (Ki class)
Procedure: Compounds are assayed for the inhibition of ERK2 by a spectrophotometric coupled-enzyme assay (Fox et al (1998) Protein Sci 7, 2249). In this assay, a fixed concentration of activated ERK2 (10 nM) is incubated with various concentrations of the compound in DMSO (2.5%) for 10 min. at 30° C. in 0.1 M HEPES buffer, pH 7.5, containing 10 mM MgCl2, 2.5 mM phosphoenolpyruvate, 200 μM NADH, 150 μg/mL pyruvate kinase, 50 μg/mL lactate dehydrogenase, and 200 μM erktide peptide. The reaction is initiated by the addition of 65 μM ATP. The rate of decrease of absorbance at 340 nm is monitored, which indicates the extent of uninhibited enzyme present in the assay. The IC50 is evaluated from the rate data as a function of inhibitor concentration.
The compound numbers correspond to the compound numbers in Tables 1-3.

[1] = tested on: Colon cancer cells (HT-29 cell line); experiment: ERK inhibition cell proliferation assay (3H-thymidine uptake); type: cell-based; settings: Homo sapiens, HT-29 cells, 3 days incubation
Procedure: Compounds may be assayed for the inhibition of ERK2 by a cell proliferation assay. In this assay, a complete media is prepared by adding 10% fetal bovine serum and penicillin/streptomycin solution to RPMI 1640 medium (JRH Biosciences). Colon cancer cells (HT-29 cell line) are added to each of 84 wells of a 96 well plate at a seeding density of 10,000 cells/well/150 μL. The cells are allowed to attach to the plate by incubating at 37° C. for 2 hours. A solution of test compound is prepared in complete media by serial dilution to obtain the following concentrations: 20 μM, 6.7 μM, 2.2 μM, 0.74 μM, 0.25 μM, and 0.08 μM. The test compound solution (50 μL) is added to each of 72 cell-containing wells. To the 12 remaining cell-containing wells, only complete media (200 μL) is added to form a control group in order to measure maximal proliferation. To the remaining 12 empty wells, complete media is added to form a vehicle control group in order to measure background. The plates are incubated at 37° C. for 3 days. A stock solution of ^3H-thymidine (1 mCi/mL, New England Nuclear, Boston, Mass.) is diluted to […] in RPMI medium then 20 μL of this solution is added to each well. The plates are further incubated at 37° C. for 8 hours then harvested and analyzed for ^3H-thymidine uptake using a liquid scintillation counter.

Chain of activated ERK2 (P28482 whole entry): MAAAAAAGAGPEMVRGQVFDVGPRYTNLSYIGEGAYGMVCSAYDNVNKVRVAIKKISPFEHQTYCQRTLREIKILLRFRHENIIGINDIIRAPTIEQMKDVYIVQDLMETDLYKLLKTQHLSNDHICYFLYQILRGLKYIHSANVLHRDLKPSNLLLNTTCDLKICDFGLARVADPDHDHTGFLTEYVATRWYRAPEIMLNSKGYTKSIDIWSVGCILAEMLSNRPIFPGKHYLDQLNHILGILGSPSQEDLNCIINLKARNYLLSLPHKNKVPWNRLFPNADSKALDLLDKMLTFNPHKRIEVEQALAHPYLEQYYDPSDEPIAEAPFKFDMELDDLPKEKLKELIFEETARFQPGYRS

| Ki (activated ERK2) [µM] | IC50 [1] [µM] | Compound |
| --- | --- | --- |
| < 1 | < 10 | CCCCNCc1ccc(-c2cn[nH]c2-c2c[nH]c(C(=O)NC(CO)c3ccc(F)c(Cl)c3)c2)cc1Cl (stereo not drawn) [II-7] |
| < 1 | < 10 | CC(=O)N[C@H](C(=O)NCc1ccc(-c2cn[nH]c2-c2c[nH]c(C(=O)N[C@H](CO)c3ccc(F)c(Cl)c3)c2)cc1Cl)C(C)C [II-21] |
| < 1 | < 10 | CCNCc1ccc(-c2c[nH]nc2-c2c[nH]c(C(=O)N[C@H](CO)c3ccc(F)c(Cl)c3)c2)cc1Cl [II-26, 4-[4-(3-Chloro-4-ethylaminomethyl-phenyl)-1H-pyrazol-3-yl]-1H-pyrrole-2-carboxylic acid [1-(3-chloro-4-fluoro-phenyl)-2-hydroxy-ethyl]-amide] |
| < 1 | – | CCOC(=O)NCc1ccc(-c2cn[nH]c2-c2c[nH]c(C(=O)N[C@H](CO)c3ccc(F)c(Cl)c3)c2)cc1Cl [II-78] |
| < 1 | – | CN(C)CCNCc1ccc(-c2cn[nH]c2-c2c[nH]c(C(=O)N[C@H](CO)c3ccc(F)c(Cl)c3)c2)cc1Cl [II-79] |
| < 1 | – | CCN(CC)C(=O)CNCc1ccc(-c2cn[nH]c2-c2c[nH]c(C(=O)N[C@H](CO)c3ccc(F)c(Cl)c3)c2)cc1Cl [II-80] |
| < 1 | – | O=C(O)CNCc1ccc(-c2cn[nH]c2-c2c[nH]c(C(=O)N[C@H](CO)c3ccc(F)c(Cl)c3)c2)cc1Cl [II-81] |
| < 1 | – | CCN(CC)CCNCc1ccc(-c2cn[nH]c2-c2c[nH]c(C(=O)N[C@H](CO)c3ccc(F)c(Cl)c3)c2)cc1Cl [II-82] |
| < 1 | – | CCOC(=O)CN(C)Cc1ccc(-c2cn[nH]c2-c2c[nH]c(C(=O)N[C@H](CO)c3ccc(F)c(Cl)c3)c2)cc1Cl [II-83] |
| < 1 | – | CCOC(=O)CN(CC(=O)OCC)Cc1ccc(-c2cn[nH]c2-c2c[nH]c(C(=O)N[C@H](CO)c3ccc(F)c(Cl)c3)c2)cc1Cl [II-84] |
| < 1 | – | CCNC(=O)CN(CC(=O)NCC)Cc1ccc(-c2cn[nH]c2-c2c[nH]c(C(=O)N[C@H](CO)c3ccc(F)c(Cl)c3)c2)cc1Cl [II-85] |
| < 1 | – | CCN(CC)C(=O)CN(CC(=O)N(CC)CC)Cc1ccc(-c2cn[nH]c2-c2c[nH]c(C(=O)N[C@H](CO)c3ccc(F)c(Cl)c3)c2)cc1Cl [II-86] |
